Entries after “also recorded” stand apart in the source; their conditions may differ.
Tests used:
HBV = test: Quantitative PCR screen of HBV plus-polarity DNA accumulation; format: cell-based, Hepatitis B virus; conditions: 60, 20, or 6.7 μM; DNA isolated day 3
Method: This assay was employed to screen 7 compounds for their ability to suppress HBV replication (FIG. 17). […] Fresh medium containing compound was provided on days 1 and 2, and capsid-associated HBV DNAs were isolated on day 3. HBV plus-strand DNAs were measured using the cross-gap TaqMan PCR assay.
Plus-polarity preferential quantitative TaqMan PCR for the HBV DNA was conducted employing forward primer […] […] PCR was conducted on purified HBV capsid-derived nucleic acids for 40 cycles of 95° C. for 15 sec. and 65° C. for 1 min. employing the TaqMan universal PCR master mix (Applied Biosystems). Results were standardized against serial dilutions of cloned HBV DNA. The EC50 was estimated by linear regression of the real-time PCR data.

[1] = target: T1, chimeric HBV:HIV RNAseH HHC1 (Hepatitis B virus genotype D subtype ayw, UniProt P03156, DELINS787-795VNQIIEQLIVK/INS679M); test: Oligonucleotide-directed RNAseH cleavage assay, chimeric HHC1; format: biochemical; conditions: read-out: Residual activity at 10 uM, HHC1
T1 construct: HHC1 is an HRHPL derivative; made in house; host or cells: E. coli BL21 codon+
In short: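 Bacterially expressed C-terminal His-tagged HHC1 (HRHPL, HBV genotype D pol 684-845, with residues 800-808 swapped for HIV RNAseH helix D) extract mixed with internally 32P-labeled DRF+ RNA and oligonucleotide D2507- (D2526+ negative control), 42 °C, 90 min. Products resolved by 12% SDS-PAGE, autoradiographed and quantified; compounds added in DMSO, DMSO vehicle control.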

HBV genotype A = test: HBV replication inhibition in Huh7 cells, Southern blot, genotype A; format: cell-based, Hepatitis B virus; conditions: for Inhibition of HBV replication, RNA:DNA heteroduplex signature: 10 μM, Huh7 cells, Southern blot
Method: Huh7 cells were maintained in Dulbecco's modified Eagle's medium with 10% fetal bovine serum at 37° C. in 5% CO2. Cells were seeded into 60 mm dishes and transfected at 70% confluency with 2.6 μg of plasmids using TransIT-LT1 (Mirus, Inc.). Test compounds were added the morning following transfection at 10 or 50 μM, and fresh medium containing the compounds was provided every 1-2 days. Four or five days post-transfection HBV cores were isolated by lysis of the cells in 10 mM Tris pH 7.5, 1 mM EDTA, 0.25% NP40, 50 mM NaCl, and 8% sucrose followed by sedimentation through a 30% sucrose cushion as described (Travis, et al., 1998). Viral DNAs were isolated from cytoplasmic core particle preparations by proteinase K digestion followed by phenol/chloroform extraction as described (Gong et al., 2001). Duplicate aliquots of the nucleic acids were treated with 2 U E. coli DNAse-free RNAseH (Invitrogen) at 37° C. for 30 min. or were mock treated. The nucleic acid samples were resolved by electrophoresis on 1.2% agarose gels and detected by Southern blotting with ^32P-labeled HBV DNA as a probe.
Finally, the inventors asked whether HBV RNAseH inhibitors could block HBV replication in culture. Huh7 cells were transfected with genomic expression vectors for HBV genotype A or D isolates, the cells were treated with 10 or 50 μM compounds, and viral nucleic acids were isolated from intracellular HBV capsids after four days. Replicate nucleic acid aliquots were mock treated or treated with DNAse-free E. coli RNAseH to destroy RNA:DNA heteroduplexes, and then HBV DNAs were detected by Southern blotting. The signature of RNAseH inhibition is accumulation of RNA:DNA heteroduplexes that migrate as double-stranded species without exogenous RNAseH treatment but as faster-migrating single-stranded DNAs following RNAseH treatment.
Inhibition of HBV replication by βTJ was measured as recently described (Tavis et al., 2013). Briefly, Huh7 cells were transfected with HBV genomic expression vectors using TransIT-LT1 (Mirus, Inc.), βTJ was added 12-16 hrs post-transfection at the indicated concentrations, and fresh medium containing the compounds was provided two days later. HBV core particles were isolated four days post-transfection by detergent lysis of the cells and sedimentation through a sucrose cushion as described (Tavis et al., 1998). Viral DNAs were isolated from cytoplasmic core particle preparations by proteinase K digestion followed by phenol/chloroform extraction as described (Gong et al., 2001). Duplicate aliquots of each nucleic acid preparation were treated with 2 U E. coli DNAse-free RNAseH (Invitrogen) at 37° C. for 30 min. or were mock treated. The nucleic acids were resolved by electrophoresis on 1.2% agarose gels and HBV DNAs were detected by Southern blotting with ^32P-labeled double-stranded HBV DNA as a probe to detect both the plus- and minus-polarity HBV DNA strands. HBV core protein (HBc) and β-actin in the cytoplasmic lysates were monitored by western analysis using an anti-HBc antibody (HBP-023-9, Austral Biologicals) and a mouse […] monoclonal antibody from ZSGB-BIO Co., Ltd., respectively. HBV surface antigen (HBs) proteins were quantified by ELISA (Shanghai Kehua Biotech).

T1 sequence (P03156 680-786, added parts left off, stated change not applied): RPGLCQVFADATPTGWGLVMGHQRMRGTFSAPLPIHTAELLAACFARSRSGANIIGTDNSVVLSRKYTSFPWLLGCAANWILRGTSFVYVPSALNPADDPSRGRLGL

For `CCOc1ccc(-c2c3cc(O)c(=O)cc-3oc3cc(O)c(O)cc23)cc1` [Compound 30], which “Suppression of HBV plus-polarity DNA accumulation” value (HBV) is on record?
The value was “inhibited accumulation of HBV plus-polarity DNA to lesser extents”.

Which remaining activity at 10 µM [1] does the source give for `Cc1nnc(C(=O)NC(C)(C)c2nc(C(=O)NCc3ccc(F)cc3)c(O)c(=O)n2C)o1` [Compound 11, Raltegravir, reference compound] here?
Its remaining activity at 10 µM is 59 ± 23%.

With `CC(C)c1ccc(O)c(=O)c(O)c1` [Compound 46, beta-thujaplicinol] as the molecule, how does the “Inhibition of HBV replication, RNA:DNA heteroduplex signature” value (HBV genotype A) read?
Its value is “inhibited HBV replication in cell culture; also recorded: inhibited production of the slowest-migrating (mature) viral DNA”.

And the “Accumulation of RC DNA and RNA:DNA heteroduplexes” value (HBV genotype A; 2.5, 10, 15, and 20 μM, four days)?
The value was “suppressed accumulation of the RC DNA”.

And the “Total amount of viral DNA detected” value (HBV genotype A; 15 and 20 μM)?
The value was “suppressed”.

What about the “Suppression of HBV plus-polarity DNA accumulation” value (HBV) of the same molecule?
Its value is “suppressed viral replication to background”.

Which “Inhibition of HBV replication” value (HBV genotype A; 25 μM) does the source give for `COc1ccc2ccccc2c1C=NNC(=O)c1cc(O)c(O)c(O)c1` [Compound 14] here?
The value was “inhibited HBV replication in one experiment”.

`[N-]=[N+]=NCc1cccc(C(=O)CC(=O)C(=O)O)c1` [Compound 40] was tested. Which “Inhibition of HBV replication” value (HBV genotype A; 50 μM) did it give?
The value was “inhibited replication in another experiment”.

With `Cc1c2cc(O)c(=O)cc-2oc2cc(O)c(O)cc12` [Compound 8] as the molecule, how does the “Inhibition of HBV replication, RNA:DNA heteroduplex signature” value (HBV genotype A) read?
The value was “did not affect HBV replication”.

With `NCc1ccc(-c2ccc(Cc3cc(=O)n(O)c4ncccc34)cc2)cc1` [Compound 12, napthyridinone] as the molecule, how does the “Inhibition of HBV replication, RNA:DNA heteroduplex signature” value (HBV genotype A) read?
Its value is “blocked production of the slowest-migrating double-stranded forms; also recorded: inhibited HBV replication in cell culture; also recorded: inhibited production of the slowest-migrating (mature) viral DNA”.

How did the remaining activity at 10 µM [1] turn out when `COc1cc2c(cc1Cc1cccc(Cl)c1F)c(=O)c(C(=O)O)cn2[C@H](CO)C(C)C` [Compound 10, Elvitegravir, reference compound] was run?
The remaining activity at 10 µM was 35 ± 7%.
